What all share (assay type): cell-based
Series [1] relates to human epithelial HeLa cells. Briefly: HeLa cytotoxicity assay (CellTiter-Glo). To be noted: pCC50. As for the experimental part: (§1) Compounds of the present invention were tested via high-throughput cellular assays utilizing detection of kynurenine via mass spectrometry and cytotoxicity as end-points. For the mass spectrometry and cytotoxicity assays, human epithelial HeLa cells (CCL-2; ATCC®, Manassas, Va.) were stimulated with human interferon-γ (IFN-γ) (Sigma-Aldrich Corporation, St. Louis, Mo.) to induce the expression of indoleamine 2, 3-dioxygenase (IDO1). Compounds with IDO1 inhibitory properties decreased the amount of kynurenine produced by the cells via the tryptophan catabolic pathway. Cellular toxicity due to the effect of compound treatment was measured using CellTiter-Glo® reagent (CTG) (Promega Corporation, Madison, Wis.), which is based on luminescent detection of ATP, an indicator of metabolically active cells.
(§2) In preparation for the assays, test compounds were serially diluted 3-fold in DMSO from a typical top concentration of 1 mM or 5 mM and plated at 0.5 μL in 384-well, polystyrene, clear bottom, tissue culture treated plates with lids (Greiner Bio-One, Kremsmünster, Austria) to generate 11-point dose response curves. Low control wells (0% kynurenine or 100% cytotoxicity) contained either 0.5 μL of DMSO in the presence of unstimulated (−IFN-γ) HeLa cells for the mass spectrometry assay or 0.5 μL of DMSO in the absence of cells for the cytotoxicity assay, and high control wells (100% kynurenine or 0% cytotoxicity) contained 0.5 μL of DMSO in the presence of stimulated (+IFN-γ) HeLa cells for both the mass spectrometry and cytotoxicity assays.
(§3) Frozen stocks of HeLa cells were washed and recovered in DMEM high glucose medium with HEPES (Thermo Fisher Scientific, Inc., Waltham, Mass.) supplemented with 10% v/v certified fetal bovine serum (FBS) (Thermo Fisher Scientific, Inc., Waltham, Mass.), and 1× penicillin-streptomycin antibiotic solution (Thermo Fisher Scientific, Inc., Waltham, Mass.). The cells were diluted to 100,000 cells/mL in the supplemented DMEM medium. 50 μL of either the cell suspension, for the mass spectrometry assay, or medium alone, for the cytotoxicity assay, were added to the low control wells, on the previously prepared 384-well compound plates, resulting in 5,000 cells/well or 0 cells/well respectively. IFN-γ was added to the remaining cell suspension at a final concentration of 10 nM, and 50 μL of the stimulated cells were added to all remaining wells on the 384-well compound plates. The plates, with lids, were then placed in a 37° C., 5% CO2 humidified incubator for 2 days.
(§4) Following incubation, the 384-well plates were removed from the incubator and allowed to equilibrate to room temperature for 30 minutes. For the cytotoxicity assay, CellTiter-Glo® was prepared according to the manufacturer's instructions, and 10 μL were added to each plate well. After a twenty minute incubation at room temperature, luminescence was read on an EnVision® Multilabel Reader (PerkinElmer Inc., Waltham, Mass.). For the mass spectrometry assay, 10 μL of supernatant from each well of the compound-treated plates were added to 40 μL of acetonitrile, containing 10 μM of an internal standard for normalization, in 384-well, polypropylene, V-bottom plates (Greiner Bio-One, Kremsmünster, Austria) to extract the organic analytes. Following centrifugation at 2000 rpm for 10 minutes, 10 μL from each well of the acetonitrile extraction plates were added to 90 μL of sterile, distilled H2O in 384-well, polypropylene, V-bottom plates for analysis of kynurenine and the internal standard on the RapidFire 300 (Agilent Technologies, Santa Clara, Calif.) and 4000 QTRAP MS (SCIEX, Framingham, Mass.). MS data were integrated using Agilent Technologies' RapidFire Integrator software, and data were normalized for analysis as a ratio of kynurenine to the internal standard. […]
(In ATP-based viability assays light output follows the ATP content of the culture.)

Series [2] deals with T1, indoleamine 2, 3-dioxygenase (IDO1) (Homo sapiens, UniProt P14902). Briefly: IDO1 HeLa RapidFire MS assay (kynurenine detection by mass spectrometry). Further details: to induce the expression of indoleamine 2, 3-dioxygenase (IDO1). Conditions: HeLa cells, pIC50, read-out: IDO1_HELA_PXC50 (converted). As for the experimental part: IDO1 HeLa RapidFire MS Assay
T1 sequence (P14902 whole entry): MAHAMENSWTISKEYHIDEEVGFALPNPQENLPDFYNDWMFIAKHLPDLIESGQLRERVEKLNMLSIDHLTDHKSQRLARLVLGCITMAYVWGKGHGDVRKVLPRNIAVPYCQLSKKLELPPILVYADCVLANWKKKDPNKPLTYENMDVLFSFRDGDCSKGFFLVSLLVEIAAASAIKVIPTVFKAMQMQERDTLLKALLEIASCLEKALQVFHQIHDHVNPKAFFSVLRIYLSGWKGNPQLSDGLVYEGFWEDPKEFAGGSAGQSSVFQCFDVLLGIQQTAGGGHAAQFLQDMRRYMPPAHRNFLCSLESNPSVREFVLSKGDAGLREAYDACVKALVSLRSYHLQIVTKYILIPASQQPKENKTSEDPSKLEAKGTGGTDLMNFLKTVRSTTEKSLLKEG
as §1, §2, §3, §4

The test system of series [3] is human peripheral blood mononuclear cells (PBMC). The experiment in a line: PBMC cytotoxicity assay (CellTiter-Glo). Conditions: 2 days, pCC50. In a few lines: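 % cytotoxicity was taken from CellTiter-Glo luminescence, using wells without cells and stimulated DMSO wells as references, and fitted by four-parameter curve to give XC50. Cells were human PBMC at 50,000 per well, activated with 100 ng/ml IFN-γ plus 50 ng/ml LPS. Incubation with 11-point, 3-fold dilution series ran for 2 days at 37 °C.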

Series [4] deals with T1, indoleamine 2, 3-dioxygenase (IDO1). The experiment in a line: IDO1 PBMC RapidFire MS assay (kynurenine detection by mass spectrometry). Further details: to induce the expression of indoleamine 2, 3-dioxygenase (IDO1); host or cells: human PBMC stimulated with IFN-gamma and LPS. To be noted: human PBMC stimulated with IFN-γ and LPS, 2 days, pIC50, read-out: PBMC PXC50 (converted). The procedure, abridged:
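Kynurenine output, read by RapidFire mass spectrometry as ratio to an internal standard, was measured after 2-day compound exposure (11-point, 3-fold dilutions) of human PBMCs induced with 100 ng/ml IFN-γ and 50 ng/ml LPS. Cell viability tracked alongside via ATP luminescence; XC50 from curve fitting.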

This is an account of results in patent US10899754B2, “Modulators of indoleamine 2,3-dioxygenase” (GLAXOSMITHKLINE INTELLECTUAL PROPERTY DEVELOPMENT LIMITED, priority 2016, dated 2021).

Compound `CC(C)CN(c1ccc([C@H](C)CC(=O)O)cc1NC(C)C)C1CCCCC1` [example 180, (3R)-3-{4-[cyclohexyl(2-methylpropyl)amino]-3-[(propan-2-yl)amino]phenyl}butanoic acid] registered an HELA_IDO1_TOX_PXC50 in series [1] of under 5. For the same compound, in series [2], the IC50 is 3.98 µM.
Taken in the same sequence, the figures for `CC(C)CN(c1ccc(C(C)CC(=O)O)cc1NC1=N[C@@H](c2ccccc2)CS1)C1CCCCC1` (stereo partly drawn) [example 149, 3-{4-[cyclohexyl(2-methylpropyl)amino]-3-{[(4S)-4-phenyl-4,5-dihydro-1,3-thiazol-2-yl]amino}phenyl}butanoic acid] were under 5 and 0.794 µM.
The corresponding values for `CC(C)CN(CC(C)C)c1ccc(C(C)CC(=O)O)cc1Nc1nnc(NS(C)(=O)=O)s1` (stereo not drawn) [example 192, 3-{4-[bis(2-methylpropyl)amino]-3-[(5-methanesulfonamido-1,3,4-thiadiazol-2-yl)amino]phenyl}butanoic acid] are under 5 and 5.01 µM.
Taken in the same sequence, the figures for `CC(C)CN(c1ccc(-c2ccccc2C(=O)O)cc1NCCC#N)C1CCCCC1` [example 277, 3′-[(2-cyanoethyl)amino]-4′-[cyclohexyl(2-methylpropyl)amino]-[1,1′-biphenyl]-2-carboxylic acid] were under 5 and 0.316 µM.
As for `COCCN(c1ccc(-c2ccccc2C(=O)O)cc1Nc1nc2ccccc2[nH]1)C1CCCCC1` [example 285, 3′-[(1H-1,3-benzodiazol-2-yl)amino]-4′-[cyclohexyl(2-methoxyethyl)amino]-[1,1′-biphenyl]-2-carboxylic acid], in series [1], the HELA_IDO1_TOX_PXC50 was under 5. The IC50 in series [2] is 0.794 µM.
The corresponding values for `CC(C)CN(CC(C)C)c1ccc(C(C)CC(=O)O)cc1Nc1ccc(C(N)=O)cn1` (stereo not drawn) [example 204, 3-{4-[bis(2-methylpropyl)amino]-3-[(5-carbamoylpyridin-2-yl)amino]phenyl}butanoic acid] are under 5 and 3.16 µM.
`CC(C)CN(CC(C)C)c1ccc(C(C)CC(=O)O)cc1Nc1ccsc1` (stereo not drawn) [example 143, 3-{4-[bis(2-methylpropyl)amino]-3-[(thiophen-3-yl)amino]phenyl}butanoic acid] displayed an HELA_IDO1_TOX_PXC50 in series [1] of under 5. For the same compound, in series [2], the IC50 is 0.316 µM.
Taken in the same sequence, the figures for `CC(C)CN(c1ccc(C(C)CC(=O)O)cc1Nc1nc2ccccn2n1)C1CCCCC1` (stereo not drawn) [example 145, 3-{4-[cyclohexyl(2-methylpropyl)amino]-3-({[1,2,4]triazolo[1,5-a]pyridin-2-yl)amino)phenyl}butanoic acid] were under 5 and 0.794 µM.
Taken in the same sequence, the figures for `CC(C)CN(CC(C)C)c1ccc(C(C)CC(=O)O)cc1Nc1nc(C(C)(C)C)cs1` (stereo not drawn) [example 133, 3-{4-[bis(2-methylpropyl)amino]-3-[(4-tert-butyl-1,3-thiazol-2-yl)amino]phenyl}butanoic acid] were 4.5 and 3.98 µM.
The corresponding values for `CC(C)CN(c1ccc(-c2ccccc2C(=O)O)cc1Nc1nc(C(F)(F)F)ns1)C1CCN(C(=O)OC(C)(C)C)CC1` [example 273, 4′-({1-[(tert-butoxy)carbonyl]piperidin-4-yl)-(2-methylpropyl)amino)-3′-{[3-(trifluoromethyl)-1,2,4-thiadiazol-5-yl]amino}-[1,1′-biphenyl]-2-carboxylic acid] are under 5 and 0.00794 µM.
In turn, `CC(C)CN(CC(C)C)c1ccc(C(C)CC(=O)O)cc1Nc1noc(-c2ccccc2)n1.O=C(O)C(F)(F)F` (stereo not drawn) [example 122, 3-{4-[bis(2-methylpropyl)amino]-3-[(5-phenyl-1,2,4-oxadiazol-3-yl)amino]phenyl}butanoic acid] returned an HELA_IDO1_TOX_PXC50 in series [1] of under 4.3. In addition, the IC50 in series [2] is 25.1 µM.
Taken in the same sequence, the figures for `CC(C)CN(CC(C)C)c1ccc(-c2ccccc2C(=O)O)cc1Nc1ccn(C)n1` [example 280, 4′-[bis(2-methylpropyl)amino]-3′-[(1-methyl-1H-pyrazol-3-yl)amino]-[1,1′-biphenyl]-2-carboxylic acid] were under 5 and 2.51 µM.
Take `CC(C)CN(c1ccc(C(C)CC(=O)O)cc1NCc1c[nH]cn1)C1CCCCC1` (stereo not drawn) [example 159, 3-{4-[cyclohexyl(2-methylpropyl)amino]-3-{[(1H-imidazol-4-yl)methyl]amino}phenyl} butanoic acid]: the HELA_IDO1_TOX_PXC50 in series [1] is listed as under 5. For the same compound, in series [3], the “PBMC TOX PXC50” value was under 5. For the same compound, the IC50 in series [4] was 5.01 µM.
Compound `CC(C)CN(c1ccc(/C=C/C(=O)O)cc1Nc1nc2ccccc2o1)C1CCCCC1` [example 137, (2E)-3-{3-[(1,3-benzoxazol-2-yl)amino]-4-[cyclohexyl(2-methylpropyl)amino]phenyl}prop-2-enoic acid] gave an HELA_IDO1_TOX_PXC50 in series [1] of under 5.
In series [1], `CC(C)CN(CC(C)C)c1ccc(C(C)CC(=O)O)cc1Nc1nnc(-c2ccccc2)o1.O=C(O)C(F)(F)F` (stereo not drawn) [example 123, 3-{4-[bis(2-methylpropyl)amino]-3-[(5-phenyl-1,3,4-oxadiazol-2-yl)amino]phenyl}butanoic acid] displayed an HELA_IDO1_TOX_PXC50 of under 4.3.
Take `COCc1nnc(Nc2cc([C@H](C)CC(=O)O)ccc2N(CC(C)C)C2CCOCC2)s1` [example 216, (3R)-3-(3-{[5-(methoxymethyl)-1,3,4-thiadiazol-2-yl]amino}-4-[(2-methylpropyl)(oxan-4-yl)amino]phenyl)butanoic acid]: in series [3], the “PBMC TOX PXC50” value was under 5. The IC50 is 0.0501 µM in series [2] and 0.0398 µM in series [4].
On to `CC(C)CN(CC(C)C)c1ccc(C(C)CC(=O)O)cc1Nc1nc(N2CCC2)ns1` (stereo not drawn) [example 120, 3-(3-{[3-(azetidin-1-yl) 1,2,4-thiadiazol-5-yl]amino}-4-[bis(2-methylpropyl)amino]phenyl)butanoic acid], for which, in series [1], the HELA_IDO1_TOX_PXC50 is under 4.3. Besides, in series [3], the “PBMC TOX PXC50” value turned out to be 4.7.
With `CC(C)CN(CC(C)C)c1ccc([C@@H]2C[C@@H]2C(=O)O)cc1Nc1nc(C(F)(F)F)ns1` (single isomer, unassigned) [example 209], in series [3], the “PBMC TOX PXC50” value is under 5. In addition, the results for the IC50 in series [2] and in series [4] were 0.02 µM and 0.0501 µM, respectively.
`CC(C)CN(c1ccc([C@H](C)CC(=O)O)cc1Nc1ccc(C(F)(F)F)nn1)C1CCOCC1` [Example 18, (R)-3-(4-(isobutyl(tetrahydro-2H-pyran-4-yl)amino)-3-((6-(trifluoromethyl)pyridazin-3-yl)amino)phenyl)butanoic Acid]: in series [3], the “PBMC TOX PXC50” value was under 5. For the same compound, the IC50 in series [4] was 0.002 µM.
